The source of these data is PMC7262789 (Journal of medicinal chemistry, 2019).

One data set addresses T1, LXRβ (Homo sapiens, UniProt P55055).
T1 sequence (P55055 222-460 limits assumed): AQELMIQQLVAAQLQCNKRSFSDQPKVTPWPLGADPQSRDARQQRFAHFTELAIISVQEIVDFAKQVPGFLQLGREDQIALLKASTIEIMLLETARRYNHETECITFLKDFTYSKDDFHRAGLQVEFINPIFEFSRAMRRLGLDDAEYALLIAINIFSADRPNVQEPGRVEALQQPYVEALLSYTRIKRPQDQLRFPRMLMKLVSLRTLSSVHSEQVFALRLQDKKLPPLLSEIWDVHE
Description: Gal4 hybrid reporter gene assay in HEK293T cells. It is filed as cell-based. To be noted: at 10 μM; reference T0901317 1 μM.

The target of data set [1] is T2, human fl sEH (sEH-H activity) (Homo sapiens, UniProt P34913).
T2 sequence (P34913 1-555): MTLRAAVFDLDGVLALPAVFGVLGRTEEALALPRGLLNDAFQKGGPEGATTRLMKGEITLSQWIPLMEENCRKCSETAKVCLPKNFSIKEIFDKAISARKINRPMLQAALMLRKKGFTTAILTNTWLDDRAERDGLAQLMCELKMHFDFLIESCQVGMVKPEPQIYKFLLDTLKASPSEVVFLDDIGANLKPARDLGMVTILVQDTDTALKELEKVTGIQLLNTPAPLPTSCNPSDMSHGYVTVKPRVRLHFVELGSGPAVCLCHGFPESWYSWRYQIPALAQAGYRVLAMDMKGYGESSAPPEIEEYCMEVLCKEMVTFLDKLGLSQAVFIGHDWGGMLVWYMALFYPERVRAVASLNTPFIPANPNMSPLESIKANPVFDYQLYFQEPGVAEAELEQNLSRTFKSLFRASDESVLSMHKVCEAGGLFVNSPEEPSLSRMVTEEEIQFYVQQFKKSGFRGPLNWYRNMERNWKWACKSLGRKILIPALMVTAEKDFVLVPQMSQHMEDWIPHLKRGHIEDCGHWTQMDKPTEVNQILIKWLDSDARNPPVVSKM
Kind of data set: PHOME-based hydrolase assay, full-length human sEH. It counts as biochemical.

The target of data set [2] is T3, N-terminal domain of sEH (sEH-P) (Homo sapiens, UniProt P34913).
T3 sequence (P34913 2-224): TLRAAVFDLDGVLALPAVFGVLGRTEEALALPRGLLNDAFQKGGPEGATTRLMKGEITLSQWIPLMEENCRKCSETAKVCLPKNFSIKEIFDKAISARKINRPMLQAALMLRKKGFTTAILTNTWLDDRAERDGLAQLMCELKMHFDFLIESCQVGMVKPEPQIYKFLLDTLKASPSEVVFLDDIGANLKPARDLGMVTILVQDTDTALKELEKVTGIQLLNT
Description: Differential scanning fluorimetry. It is filed as binding. Particulars: inhibitor 50 μM. (In DSF a fluorescence change marks the thermal transition of the protein.)

In data set [3] the target is T4, recombinant sEH-P domain (N-terminal domain of sEH) (Homo sapiens, UniProt P34913).
T4 sequence (P34913 1-222): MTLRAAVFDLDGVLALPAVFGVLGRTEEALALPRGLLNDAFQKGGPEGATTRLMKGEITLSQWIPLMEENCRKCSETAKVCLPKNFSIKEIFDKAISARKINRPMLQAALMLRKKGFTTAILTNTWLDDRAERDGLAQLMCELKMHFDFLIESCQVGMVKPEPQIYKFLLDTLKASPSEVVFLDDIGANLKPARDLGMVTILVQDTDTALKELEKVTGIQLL
Kind of data set: FDP-based phosphatase assay, isolated sEH-P domain. It is filed as biochemical. To be noted: FDP substrate, recombinant sEH-P domain.

In the next data set the target is T5, PPARβ/δ (Homo sapiens, UniProt Q03181).
T5 sequence (Q03181 211-439 limits assumed): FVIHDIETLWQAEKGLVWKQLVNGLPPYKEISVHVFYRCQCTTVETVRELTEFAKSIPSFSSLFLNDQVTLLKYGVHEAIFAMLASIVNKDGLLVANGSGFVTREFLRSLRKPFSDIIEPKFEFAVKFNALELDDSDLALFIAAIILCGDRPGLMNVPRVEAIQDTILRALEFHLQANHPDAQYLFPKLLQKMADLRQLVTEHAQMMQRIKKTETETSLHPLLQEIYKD
Kind of data set: Gal4 hybrid reporter gene assay in HEK293T cells. It counts as cell-based. To be noted: at 10 μM; reference L165,041 1 μM. For orientation: In a reporter assay the amount or activity of a reporter protein is the signal.

The target in data set [4] is T6, C-terminal domain of sEH (sEH-H) (Homo sapiens, UniProt P34913).
T6 sequence (P34913 235-555 limits assumed): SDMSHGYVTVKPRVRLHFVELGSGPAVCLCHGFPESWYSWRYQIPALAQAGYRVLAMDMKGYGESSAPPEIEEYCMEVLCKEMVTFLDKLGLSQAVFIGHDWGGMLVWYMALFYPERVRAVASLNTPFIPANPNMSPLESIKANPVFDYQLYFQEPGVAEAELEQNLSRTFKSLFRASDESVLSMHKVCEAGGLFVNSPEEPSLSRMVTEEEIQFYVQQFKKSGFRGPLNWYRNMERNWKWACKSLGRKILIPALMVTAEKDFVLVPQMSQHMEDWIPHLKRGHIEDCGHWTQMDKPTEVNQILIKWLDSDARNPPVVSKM
Kind of data set: Differential scanning fluorimetry. It counts as binding. To be noted: inhibitor 50 μM.

The test system of another data set is sEH-H. Description: Epoxy fatty acid/diol ratios in rat plasma by LC-MS/MS. Particulars: rat plasma 8 h after 30 mg/kg p.o., vs vehicle. It is filed as in vivo.
The target of another data set is T7, full-length human sEH (Homo sapiens, UniProt P34913).
T7 sequence (P34913 1-555): T2 sequence (P34913 1-555)
Description: DiFMUP-based phosphatase assay, full-length sEH. Particulars: DiFMUP substrate.

Data set [5] concerns the target T8, isolated N-terminal domain of sEH (sEH-P) (Homo sapiens, UniProt P34913).
T8 sequence (P34913 1-222): T4 sequence (P34913 1-222)
Kind of data set: DiFMUP-based phosphatase assay, isolated N-terminal domain. Particulars: DiFMUP substrate.

The target of a further data set is T9, PPARα (Homo sapiens, UniProt Q07869).
T9 sequence (Q07869 239-466 limits assumed): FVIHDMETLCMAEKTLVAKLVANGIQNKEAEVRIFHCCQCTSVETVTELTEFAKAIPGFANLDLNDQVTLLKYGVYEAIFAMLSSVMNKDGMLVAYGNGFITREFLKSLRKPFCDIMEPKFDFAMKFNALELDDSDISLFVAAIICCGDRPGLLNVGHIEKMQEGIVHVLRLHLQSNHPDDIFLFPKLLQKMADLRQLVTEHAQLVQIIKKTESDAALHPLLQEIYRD
Description: Gal4 hybrid reporter gene assay in HEK293T cells. It counts as cell-based. Particulars: at 10 μM; reference GW7647 1 μM.

For a further data set, the target named is T10, FXR (Homo sapiens, UniProt Q96RI1).
T10 sequence (Q96RI1 262-486 limits assumed): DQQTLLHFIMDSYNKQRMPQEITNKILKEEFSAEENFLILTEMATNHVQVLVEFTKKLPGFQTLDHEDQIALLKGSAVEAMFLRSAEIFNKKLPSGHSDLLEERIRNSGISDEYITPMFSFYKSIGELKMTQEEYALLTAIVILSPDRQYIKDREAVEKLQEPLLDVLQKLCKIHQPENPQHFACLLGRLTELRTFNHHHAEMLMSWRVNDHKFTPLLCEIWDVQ
Kind of data set: Gal4 hybrid reporter gene assay in HEK293T cells. It counts as cell-based. To be noted: at 10 μM; reference GW4064 1 μM.

Data set [6] can be described thus: Pharmacokinetic study in male Sprague-Dawley rats. It counts as in vivo, rat. To be noted: 30 mg/kg p.o., male SD rats.
For the next data set, the target named is T11, LXRα (Homo sapiens, UniProt Q13133).
T11 sequence (Q13133 209-447 limits assumed): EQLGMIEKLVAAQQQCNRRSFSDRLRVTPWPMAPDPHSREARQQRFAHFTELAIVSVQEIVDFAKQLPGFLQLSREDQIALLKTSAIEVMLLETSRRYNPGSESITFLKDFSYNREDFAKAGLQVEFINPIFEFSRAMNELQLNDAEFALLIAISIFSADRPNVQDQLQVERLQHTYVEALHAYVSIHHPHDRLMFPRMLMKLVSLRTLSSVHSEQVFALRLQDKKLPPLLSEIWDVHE
Kind of data set: Gal4 hybrid reporter gene assay in HEK293T cells. Particulars: at 10 μM; reference T0901317 1 μM. It is filed as cell-based.

A further data set concerns the target T12, PPARγ (Homo sapiens, UniProt P37231).
T12 sequence (P37231 238-503 limits assumed): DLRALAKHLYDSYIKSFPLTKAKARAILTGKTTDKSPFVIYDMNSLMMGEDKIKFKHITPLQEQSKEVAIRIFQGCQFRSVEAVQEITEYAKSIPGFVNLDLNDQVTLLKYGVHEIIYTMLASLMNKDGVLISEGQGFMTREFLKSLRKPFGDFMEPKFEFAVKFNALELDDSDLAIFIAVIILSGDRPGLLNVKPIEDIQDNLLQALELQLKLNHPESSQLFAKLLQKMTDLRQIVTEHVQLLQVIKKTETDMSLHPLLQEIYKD
Kind of data set: Gal4 hybrid reporter gene assay in HEK293T cells. It counts as cell-based. Particulars: at 10 μM; reference pioglitazone 1 μM.

“Also recorded” adds a separate entry of the source.

In general, IC50 refers to the concentration at which inhibition is half-maximal. The low end stands for greater potency in that assay, the high end for weaker potency in that assay. For the compound `O=C(O)CCCc1nc(-c2ccc(Cl)c(Cl)c2)c(-c2ccccc2)o1` [22b, 4-(4-(3,4-Dichlorophenyl)-5-phenyloxazol-2-yl)butanoic Acid], the “LXRβ transactivation of the reference agonist” value on LXRβ is “inactive at 10 μM”. Besides, the 50% inhibitory concentration (IC50) in [1] was about 9 µM. Moreover, the “stabilization of the N-terminal domain in DSF” value in data set [2] is on record as “stabilized; also recorded: able to stabilize”. In addition, in data set [3], the “inhibitory potency toward sEH-P (SAR statement in words)” value was “further improved the inhibitory activity”. Moreover, at PPARβ/δ, the “PPARβ/δ transactivation of the reference agonist” value was “inactive at 10 μM”. The “stabilization of the C-terminal domain in DSF” value in data set [4] is recorded as “did not stabilize”. Also, in the data set on sEH-H, the “ratio of main epoxy fatty acids to their respective diols” value is listed as “did not influence”. Moreover, the mode of inhibition result (at full-length human sEH; in data set [5]) was “competitive inhibitor” throughout. For the same compound, the “PPARα transactivation of the reference agonist” value at PPARα is “inactive at 10 μM”. Besides, the “FXR transactivation of the reference agonist” value on FXR was “inactive at 10 μM”. Besides, in data set [6], the maximum plasma concentration is 48 µg/mL. On LXRα, the “LXRα transactivation of the reference agonist” value was “inactive at 10 μM”.
For the compound `O=C(O)CCc1nc(-c2ccccc2)c(-c2ccccc2)o1` [compound 5, oxaprozin, reference compound], the “PPARγ transactivation of the reference agonist” value on PPARγ is “inactive at 10 μM”. Also, the “LXRβ transactivation of the reference agonist” value on LXRβ is “inactive at 10 μM”. On PPARβ/δ, the “PPARβ/δ transactivation of the reference agonist” value is “inactive at 10 μM”. The “PPARα transactivation of the reference agonist” value on PPARα was “inactive at 10 μM”. Besides, on LXRα, the “LXRα transactivation of the reference agonist” value is “inactive at 10 μM”.
